Holding throughout (type): functional
One assay concerns CHO-K1. The assay can be described thus: Counterscreen for antagonists of the orexin 1 receptor (OX1R; HCRTR1): Homogeneous time resolved fluorescence (HTRF)-based cell-based dose response assay to identify antagonists of the parental CHO-K1 cell line. [Related pubchem assays (depositor defined):AID434989, AID435008, AID463079, AID485270, AID492963, AID492964, AID492965, AID493232, AID504699, AID504701]. As to conditions: Cricetulus griseus. A general note: Counterscreens check selectivity or assay interference.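 Also: potency for inhibition of ATP-stimulated IP1 production as antagonists.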

Assay [1] can be described thus: Counterscreen for antagonists of the orexin 1 receptor (OX1R; HCRTR1): Fluorescence-based cell-based high throughput dose response assay to identify antagonists of the parental CHO cell line. [Related pubchem assays (depositor defined):AID434989, AID435008, AID463079, AID485270, AID492963, AID492964, AID492965, AID493232, AID504699, AID504701].
Assay [2] deals with T1, Orexin/Hypocretin receptor type 1 (Homo sapiens, UniProt O43613).
T1 sequence (O43613 whole entry): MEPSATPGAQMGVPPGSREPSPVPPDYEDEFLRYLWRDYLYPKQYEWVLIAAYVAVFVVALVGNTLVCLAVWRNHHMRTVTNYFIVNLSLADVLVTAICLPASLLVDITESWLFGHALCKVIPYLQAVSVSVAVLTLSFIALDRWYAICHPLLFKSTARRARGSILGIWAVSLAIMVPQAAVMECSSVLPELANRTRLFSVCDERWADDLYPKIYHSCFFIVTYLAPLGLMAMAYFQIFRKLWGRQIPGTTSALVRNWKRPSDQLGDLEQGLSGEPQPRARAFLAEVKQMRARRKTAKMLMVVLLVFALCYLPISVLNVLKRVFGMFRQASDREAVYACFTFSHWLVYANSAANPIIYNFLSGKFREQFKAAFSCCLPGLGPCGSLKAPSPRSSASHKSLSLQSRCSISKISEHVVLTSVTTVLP
As to the kind of experiment: Homogeneous Time Resolved Fluorescence (HTRF)-based cell-based high throughput dose response assay for antagonists of the orexin 1 receptor (OX1R; HCRTR1). [Related pubchem assays (depositor defined):AID434989, AID435008, AID463079, AID485270, AID492963, AID492964, AID492965, AID493232, AID504717, AID504718]. (In general: In TR-FRET formats the signal depends on donor and acceptor labels being close together.)

Assay [3] concerns the target T1, Orexin/Hypocretin receptor type 1. The assay can be described thus: Fluorescence-based cell-based high throughput dose response assay for antagonists of the orexin 1 receptor (OX1R; HCRTR1). [Related pubchem assays (depositor defined):AID434989, AID435008, AID463079, AID485270, AID492963, AID492964, AID492965, AID493232, AID504717, AID504718].
In assay [4] the target is T2, Orexin receptor type 2 (Homo sapiens, UniProt O43614).
T2 sequence (O43614 whole entry): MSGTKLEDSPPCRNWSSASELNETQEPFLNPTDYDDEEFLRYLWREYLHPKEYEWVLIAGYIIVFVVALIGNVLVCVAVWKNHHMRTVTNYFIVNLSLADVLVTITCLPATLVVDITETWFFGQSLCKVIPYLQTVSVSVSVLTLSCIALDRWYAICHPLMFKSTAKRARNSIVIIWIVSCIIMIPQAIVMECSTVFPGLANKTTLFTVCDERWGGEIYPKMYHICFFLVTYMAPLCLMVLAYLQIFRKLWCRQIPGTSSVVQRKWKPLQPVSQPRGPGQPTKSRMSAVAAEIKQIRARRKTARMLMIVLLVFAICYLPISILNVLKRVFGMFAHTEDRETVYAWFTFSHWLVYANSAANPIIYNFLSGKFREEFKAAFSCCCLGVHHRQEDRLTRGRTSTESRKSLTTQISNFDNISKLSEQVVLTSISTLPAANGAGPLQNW
As to the kind of experiment: Counterscreen assay for antagonists of the orexin 1 receptor (OX1R; HCRTR1): Fluorescence-based cell-based dose response assay for antagonists of the orexin 2 receptor (OX2R; HCRTR2), run by assay provider.

The target in assay [5] is T2, Orexin receptor type 2. The assay can be described thus: Counterscreen assay for antagonists of the orexin 1 receptor (OX1R; HCRTR1): Homogeneous Time Resolved Fluorescence (HTRF)-based cell-based dose response assay for antagonists of the orexin 2 receptor (OX2R; HCRTR2), run by assay provider.
Assay [6] is described as follows: reduction of Shn3 3'UTR-driven luciferase in osteoblasts – cell-based, Clone20 osteoblasts, firefly luciferase, cherry-picked, dose response (AID 624132).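 Also: firefly luciferase luminescence from reporter carrying the Shn3 3'UTR in osteoblasts.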
Assay [7] can be described thus: non-specific 3'UTR reporter inhibition in Clone20-Shn3RL – cell-based, Renilla luciferase, cherry-picked, counter-screen for Shn3 inhibitor project, dose response (AID 624133).
Another assay concerns the target Protein Wnt-3a (Mus musculus, UniProt P27467). The assay can be described thus: antagonism of Wnt3a pathway luciferase reporter – Wnt-LIGHT cells, luminescence, selectivity assay for Gli-SUFU antagonist project, dose response (AID 651570).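 Also: Wnt-LIGHT reporter cells stimulated with conditioned medium from Wnt3a-producing cells.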 As to conditions: read-out: IC50_Mean. (Reporter assays use an easily measured gene product as a stand-in for the process of interest.)

Assay [8] in a line: Luminescence-based cell-based high throughput dose response assay to identify activators of the DAF-12 from the parasite S. stercoralis (ssDAF-12).
The target of assay [9] is T3, Oxysterols receptor LXR-beta (Homo sapiens, UniProt P55055).
T3 sequence (P55055 whole entry): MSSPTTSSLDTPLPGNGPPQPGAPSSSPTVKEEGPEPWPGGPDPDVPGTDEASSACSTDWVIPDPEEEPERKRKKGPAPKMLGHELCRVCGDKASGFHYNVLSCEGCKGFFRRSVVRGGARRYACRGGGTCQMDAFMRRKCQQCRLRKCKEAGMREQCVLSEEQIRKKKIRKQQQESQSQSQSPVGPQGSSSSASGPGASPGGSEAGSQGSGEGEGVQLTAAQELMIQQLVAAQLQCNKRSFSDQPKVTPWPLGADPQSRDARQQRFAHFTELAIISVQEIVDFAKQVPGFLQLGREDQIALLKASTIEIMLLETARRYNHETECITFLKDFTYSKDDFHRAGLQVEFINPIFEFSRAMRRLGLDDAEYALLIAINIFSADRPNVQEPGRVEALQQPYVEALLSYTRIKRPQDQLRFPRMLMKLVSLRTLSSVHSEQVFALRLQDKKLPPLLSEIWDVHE
As to the kind of experiment: LXR agonists, Gal4 luciferase reporter, dose response, counter-screen for ssDAF-12 agonist project, cell-based, luminescence, HEK293, S. stercoralis campaign (AID 720737). As to conditions: read-out: IC50 (the source's name).

Assay [10] addresses T4, Replicative DNA helicase DnaB (Mycobacterium tuberculosis, UniProt P9WMR3).
T4 sequence (P9WMR3 whole entry): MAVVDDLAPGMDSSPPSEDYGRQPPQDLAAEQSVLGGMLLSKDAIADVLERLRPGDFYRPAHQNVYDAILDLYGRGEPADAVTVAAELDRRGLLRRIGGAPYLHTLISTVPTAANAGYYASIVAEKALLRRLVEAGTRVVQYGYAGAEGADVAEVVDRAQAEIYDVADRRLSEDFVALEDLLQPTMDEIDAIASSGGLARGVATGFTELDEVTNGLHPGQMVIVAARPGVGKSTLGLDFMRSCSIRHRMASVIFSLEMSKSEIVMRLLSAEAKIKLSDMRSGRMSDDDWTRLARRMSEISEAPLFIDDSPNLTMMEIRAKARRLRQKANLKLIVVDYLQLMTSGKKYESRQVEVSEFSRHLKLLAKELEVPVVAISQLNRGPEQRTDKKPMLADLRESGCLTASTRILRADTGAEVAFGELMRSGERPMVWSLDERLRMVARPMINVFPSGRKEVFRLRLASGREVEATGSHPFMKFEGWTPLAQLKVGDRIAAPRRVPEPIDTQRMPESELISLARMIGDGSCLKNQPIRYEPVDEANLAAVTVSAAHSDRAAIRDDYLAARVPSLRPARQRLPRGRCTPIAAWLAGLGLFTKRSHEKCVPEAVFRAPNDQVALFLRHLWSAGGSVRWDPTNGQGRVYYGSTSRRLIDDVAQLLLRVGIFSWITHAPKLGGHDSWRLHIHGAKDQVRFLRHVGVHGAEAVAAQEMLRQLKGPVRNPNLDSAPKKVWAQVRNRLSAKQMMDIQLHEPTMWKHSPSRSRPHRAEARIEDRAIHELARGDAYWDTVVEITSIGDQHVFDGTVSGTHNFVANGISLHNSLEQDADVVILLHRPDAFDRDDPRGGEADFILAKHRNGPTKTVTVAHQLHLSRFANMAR
As to the kind of experiment: DnaB intein splicing inhibitors, dose response, biochemical, cell-free fluorescence (AID 449749).

Another assay concerns the target T5, Protein RecA (Mycobacterium tuberculosis, UniProt P9WHJ3).
T5 sequence (P9WHJ3 whole entry): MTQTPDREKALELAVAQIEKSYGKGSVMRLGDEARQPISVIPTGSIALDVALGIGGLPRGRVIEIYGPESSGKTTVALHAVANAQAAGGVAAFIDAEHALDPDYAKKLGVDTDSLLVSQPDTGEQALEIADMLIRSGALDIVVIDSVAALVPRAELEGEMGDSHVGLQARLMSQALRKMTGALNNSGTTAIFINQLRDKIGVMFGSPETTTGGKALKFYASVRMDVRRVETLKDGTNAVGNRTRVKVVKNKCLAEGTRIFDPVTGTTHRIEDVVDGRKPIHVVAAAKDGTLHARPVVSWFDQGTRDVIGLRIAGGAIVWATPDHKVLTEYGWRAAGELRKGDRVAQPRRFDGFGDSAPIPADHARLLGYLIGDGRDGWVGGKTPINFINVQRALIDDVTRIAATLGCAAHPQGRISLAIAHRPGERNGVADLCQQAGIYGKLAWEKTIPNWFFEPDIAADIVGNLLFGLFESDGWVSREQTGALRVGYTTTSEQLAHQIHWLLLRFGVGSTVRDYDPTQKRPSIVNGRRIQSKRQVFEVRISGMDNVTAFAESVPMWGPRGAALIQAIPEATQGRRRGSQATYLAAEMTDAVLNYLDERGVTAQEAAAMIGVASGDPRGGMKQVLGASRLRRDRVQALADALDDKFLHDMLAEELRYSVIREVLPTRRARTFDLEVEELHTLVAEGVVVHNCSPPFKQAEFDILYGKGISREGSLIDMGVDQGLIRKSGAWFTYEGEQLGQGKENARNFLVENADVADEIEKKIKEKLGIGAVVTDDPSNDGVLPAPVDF
As to the kind of experiment: Fluorescence Cell-Free Homogeneous Dose Retest to Identify Inhibitors of RecA-Intein Splicing Activity. [Related pubchem assays (depositor defined):AID2097, AID2223, AID489010, AID492950].

Assay [11] is described as follows: A Cell Based Secondary Assay to Explore Cytotoxicity in THP-1 Cells of Compounds that Modulate Mycobacterium tuberculosis in Media Containing Glycerol versus Media without Glycerol (2).
Assay [12] in a line: Vero cell cytotoxicity, cytotoxicity control for M. tuberculosis inhibitor project, purified and synthesized samples, set 3 (AID 504684). As to conditions: […].

Activity calls are given as the source filed them.

Sequence of Protein Wnt-3a (P27467 whole entry): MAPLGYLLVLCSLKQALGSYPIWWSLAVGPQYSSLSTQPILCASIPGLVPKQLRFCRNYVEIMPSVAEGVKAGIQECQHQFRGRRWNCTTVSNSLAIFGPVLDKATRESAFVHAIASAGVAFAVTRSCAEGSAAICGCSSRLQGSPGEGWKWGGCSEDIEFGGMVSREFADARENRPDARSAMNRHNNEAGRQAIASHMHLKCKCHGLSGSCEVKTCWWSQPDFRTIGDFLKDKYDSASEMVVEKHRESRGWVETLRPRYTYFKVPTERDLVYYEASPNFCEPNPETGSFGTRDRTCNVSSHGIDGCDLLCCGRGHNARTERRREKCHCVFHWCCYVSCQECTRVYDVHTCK

On to `COc1cc(OC)c(-c2nc3ccccc3s2)cc1OC`, for which the IC50 is > 66.2 µM (inactive) in the assay with CHO-K1; > 49.7 µM (inactive) in assay [1]; 0.46 µM (active) in [2]; 5.47 µM (active) in [3]; > 88.8 µM (inactive) at Orexin receptor type 2 [4]; > 50 µM (inactive) at Orexin receptor type 2 [5].

Take `C=CCOc1nc2c(c(=O)n(C)c(=O)n2C)n1Cc1ccc(Cl)cc1`: the figures for the AC50 in assay [6] and in assay [7] were 1.03 µM (active) and 2.02 µM (active), respectively. The IC50 at Protein Wnt-3a is 1.88 µM (active).

As for `COc1ccc(-c2nn3c(-c4ccccc4)nnc3s2)cc1`, the IC50 in the assay with CHO-K1 was > 66.2 µM (inactive); in assay [1], > 49.8 µM (inactive); in assay [2] it was 2.44 µM (active); in assay [3], > 5.53 µM (active); on Orexin receptor type 2 [4], > 88.8 µM (inactive); on Orexin receptor type 2 [5] it was > 50 µM (inactive).

`Cc1ccc(NC(=O)c2ccc3ccccc3n2)nc1`: the IC50 is > 66.2 µM (inactive) with CHO-K1; > 49.7 µM (inactive) in assay [1]; 1.64 µM (active) in assay [2]; 10.4 µM (inactive) in [3]; > 88.8 µM (inactive) on Orexin receptor type 2 [4]; 2.35 µM (active) on Orexin receptor type 2 [5]. Also, the IC50 in assay [8] is > 67.5 µM (inactive). Moreover, in [9], the EC50 was > 67.5 µM (inactive).

On to `O=C1C(Br)=Cc2cccc3cccc1c23`, for which the AC50 in assay [10] was > 380 µM (inactive). At Protein RecA, the EC50 is 0.581 µM (active). The results for the CC50 in assay [11] and in [12] were > 100 µM (active) and 74.6 µM (active), respectively.

The term AC50 denotes the midpoint of the concentration-response curve, whichever way the signal moves. By CC50 is commonly meant the concentration at which the toxic effect on the cells reaches its halfway point.

For the origin of these results see ChEMBL document CHEMBL1201862, “PubChem BioAssay data set” (2004).
